Measurements as given in patent publication US12570627B2, “Pharmaceutical composition in which production of impurities is suppressed” (Shionogi & Co., Ltd., priority 2020, dated 2026).
Where “and” joins values, the source holds several entries; their conditions need not be identical. Equal entries are not always repeated. Values belong to the compound of their own block, whether it stands above or below them.

Columns and labels:
Format in all cases: physicochemical
[1] = Measurement of content ratio of compound represented by Formula (III) contained in crystal (Test Example 1); conditions: crystal as produced
Experimental: The content ratio of the compound represented by Formula (III) in the dihydrate crystal of the compound represented by Formula (I) produced in Example L was determined by the following method.
In Examples 1 to 4 and 6 and Reference Examples 1 to 2, the content ratio was determined in the same manner.
(§1) A standard sample of the compound represented by Formula (III) was prepared by the following method, • Step 1: About 25 µg of the compound represented by Formula (III) was weighed precisely, and dissolved in a mixed solution of N,N-dimethylformamide and water (9:1) to make exactly 20 mL, • Step 2: One milliliter of the solution of Step 1 was accurately taken, and a mixed solution of N,N-dimethylformamide and water (9:1) was added to make exactly 50 mL. • Step 3: Two milliliters of the solution of Step 2 was accurately taken, and a mixed solution of N,N-dimethylformamide and water (9:1) was added to make exactly 20 mL, thereby obtaining a standard solution. (Preparation of Sample Solution)
(§2) About 125 to 600 mg of a sample was weighed precisely, and dissolved by adding a mixed solution of N,N-dimethylformamide and water (9:1) to make exactly 5 mL.
(§3) An amount of the compound represented by Formula (III) was measured with a liquid chromatograph according to the following method and conditions. • Measuring instrument: UHPLC (NexeraX2, SHIMADZU) • Detector: UV • Measurement wavelength: 271 nm • Column: ACQUITY UPLC BEH SHIELD PR18, 1.7 μm (2.1×100 mm) • Column temperature: constant temperature at near 40° C. • Mobile phase A: 20 mmol/L potassium dihydrogen phosphate aqueous solution • Mobile phase B: acetonitrile for liquid chromatography • Feed of mobile phase: The mixing ratio of mobile phase A and mobile phase B was changed as shown in Table 1 to control concentration gradient.
(§4) • Flow rate: 0.3 mL/min • Injection amount 2 μL • Sample cooler temperature: 5° C. • Area measurement range: 11 minutes after injection • Needle washing solution: mixed solution of N,N-dimethylformamide and water (9:1) (Calculation Formula) Content (ppm) of compound represented by Formula(III)=MS/MT×AT/AS×1/2000×1000000 (Mathematical formula 4) • MS: Weighing amount (mg) of compound represented by Formula (III) • MT: Weighing amount (mg) of sample • AS: Peak area of compound represented by Formula (III) obtained from standard solution • AT: Peak area of compound represented by Formula (III) obtained from sample solution • 1/2000: Dilution ratio

[2] = 90% particle size distribution, laser diffraction HELOS & RODOS (Test Example 2); conditions: dispersion pressure 4 bar
Experimental: A 90% particle size distribution in the production method of Reference Example 1 was determined by the following method.
In Examples 1 to 6 and Reference Example 3, the 90% particle size distribution was determined in the same manner.
A 90% particle size distribution was measured according to the following method and conditions. • Measuring instrument: laser diffraction particle size distribution measuring apparatus (HELOS & RODOS, Sympatec GmbH) • Dispersion pressure: 4 bar • Feed: 50% • Rotation: 20% • Focal length: 50 mm • Trigger condition: reference duration 2 seconds • Time Base 100 ms • Start Optical concentration ≥1.0% • Stop Optical concentration ≤1.0% • Measurement range: R2

[3] = Measurement of content ratio of compound represented by Formula (III) contained in solution; increase during crystallization operation (Test Example 3); conditions: for Increased amount of content ratio of compound represented by Formula (III) during crystallization operation: total in filtrate and crystal minus solution before crystallization; for Total amount of the content ratio of compound represented by Formula (III) contained in the filtrate after filtration and the obtained crystal: after crystallization; for Content ratio of compound represented by Formula (III) in the solution before crystallization: reaction solution / dissolved anhydrate crystal
Experimental: The content ratio of the compound represented by Formula (JII) in the solution in the production method of Example 1 was determined by the following method.
In Example 4 and Reference Examples 2 to 3, the content ratio was determined in the same manner.
as §1, with “the following method. • Step” for “the following method, • Step”, “About 25 mg of the” for “About 25 µg of the”, “exactly 20 mL. • Step” for “exactly 20 mL, • Step”, “exactly 20 ml, thereby obtaining” for “exactly 20 mL, thereby obtaining”
About 60 to 1300 mg of a sample was weighed precisely, and dissolved by adding a mixed solution of N,N-dimethylformamide and water (9:1) to make exactly 5 mL.
as §3, with “SHIELD PF18,” for “SHIELD PR18,”, “Table 2” for “Table 1”
• Flow rate: 0.3 mL/min • Injection amount: 2 μL • Sample cooler temperature: 5° C. • Area measurement range: 11 minutes after injection • Needle washing solution: mixed solution of N,N-dimethylformamide and water (9:1) (Calculation formula) Content (ppm) of compound represented by Formula(III)=MS/MT×AT/AS×1/2000×YT/YS×1000000 (Mathematical formula 3) • MS: Weighing amount (mg) of compound represented by Formula (III) • MT: Weighing amount (mag) of sample • AS: Peak area of compound represented by Formula (III) obtained from standard solution • AT: Peak area of compound represented by Formula (III) obtained from sample solution • YS: Yield (g) of compound represented by Formula (I) • YT: Total weight (g) of sample • 1/2000: Dilution ratio

[4] = Stability testing of crystal (Test Example 4); conditions: for Content ratio of compound represented by Formula (III), 1M: protect from light, double polyethylene bag with desiccant, metal can
Experimental: as §1, §2, §3, §4
The samples obtained in Example 1 and Reference Example 1 were subjected to a stability testing to evaluate the content of the compound represented by Formula (III).
The storage conditions and the packaging form of Example 1 are shown in Table 3, and the storage conditions and the packaging form of Reference Example 1 are shown in Table 4.
Samples were placed in a polyethylene bag (Suntec-LD M2206 (additive free) 100×210×0.1 mm, TOWA KAKO CO., LTD.) and tightened with Convex (CV100N, SHIBAKEISOZAI CO., LTD.). This bag was further placed in a polyethylene (Suntec-LD M2206 (additive free) 100×210×0.1 mm, TOWA KAKO CO., LTD.) bag and similarly tightened with Convex (CV100N, SHIBAKEISOZAI CO., LTD.). The above samples under the same storage conditions were put together in a metal can (3dia, a stainless steel can with an inner diameter of 16 cm and a depth of 18 cm). • Double polyethylene bag, Convex (containing desiccant), metal can:
Samples were placed in a polyethylene bag (Suntec-LD M2206 (additive free) 100×210×0.1 mm, TOWA KAKO CO., LTD.) and tightened with Convex (CV100N, SHIBAKEISOZAI CO., LTD.). This bag was further placed in a polyethylene bag (Suntec-LD M2206 (additive free) 100×210×0.1 mm, TOWA KAKO) CO., LTD.) and similarly tightened with Convex (CV100N, SHIBAKEISOZAI CO., LTD.). The samples under the same storage conditions were put together in a metal can (3dia, a stainless steel can with an inner diameter of 16 cm and a depth of 18 cm) containing silica gel (using raw materials manufactured by Fuji Silysia Chemical Ltd., contained in 1 g bag).
The content of the compound represented by Formula (III) was confirmed in the same manner as in Test Example 1.

Content ratio of compound represented by Formula (III) in the obtained crystal [1]: 1.0 ppm | 90% particle size distribution [2]: 7.17 μm
Compound: C[C@@H](Cn1c(=O)[nH]/c(=N\c2ccc(Oc3ccccn3)cc2)n(Cc2ccc(Cl)cc2)c1=O)C(=O)O [Example 2]

Content ratio of compound represented by Formula (III) in the obtained crystal [1]: 1.5 ppm | 90% particle size distribution [2]: 6.48 μm
Compound: C[C@@H](Cn1c(=O)[nH]/c(=N\c2ccc(Oc3ccccn3)cc2)n(Cc2ccc(Cl)cc2)c1=O)C(=O)O [Example 3]

Increased amount of content ratio of compound represented by Formula (III) during crystallization operation [3]: 8.7 ppm | Content ratio of compound represented by Formula (III) in the obtained crystal [1]: 1.30 ppm
Compound: C[C@@H](Cn1c(=O)[nH]/c(=N\c2ccc(Oc3ccccn3)cc2)n(Cc2ccc(Cl)cc2)c1=O)C(=O)O [Example 4]

90% particle size distribution [2]: 27.57 μm
Compound: C[C@@H](Cn1c(=O)[nH]/c(=N\c2ccc(Oc3ccccn3)cc2)n(Cc2ccc(Cl)cc2)c1=O)C(=O)O [Example 5]

Content ratio of compound represented by Formula (III) in the obtained crystal [1]: 1.0 ppm | 90% particle size distribution [2]: 61.22 μm
Compound: C[C@@H](Cn1c(=O)[nH]/c(=N\c2ccc(Oc3ccccn3)cc2)n(Cc2ccc(Cl)cc2)c1=O)C(=O)O [Example 6]

Content ratio of compound represented by Formula (III) in the obtained crystal [1]: not detected
Compound: C[C@@H](Cn1c(=O)[nH]/c(=N\c2ccc(Oc3ccccn3)cc2)n(Cc2ccc(Cl)cc2)c1=O)C(=O)O [Example L]
Content ratio of compound represented by Formula (III) in the obtained crystal ([1]; listed as dihydrate crystal of the compound represented by Formula (I)): not contained or is below a detection limit

90% particle size distribution [2]: 14.53 μm | Increased amount of compound represented by Formula (III) from the start of the test ([4]; 40±2° C./75±5% RH, 1 month): 12 ppm | Content ratio of compound represented by Formula (III), 3M ([4]; 40±2° C./75±5% RH, 3 months): 18 ppm | Increased amount of compound represented by Formula (III) from the start of the test ([4]; 40±2° C./75±5% RH, 3 months): 15 ppm | Content ratio of compound represented by Formula (III), 3M ([4]; 40 ± 2° C./75 ± 5% RH, 3 months, listed as Reference example 1): 18 ppm | Content ratio of compound represented by Formula (III), 1M ([4]; 40 ± 2° C./75 ± 5% RH, 1 month): 15 ppm | Content ratio of compound represented by Formula (III), 1M ([4]; 40 ± 2° C./75 ± 5% RH, 1 month, listed as Reference example 1): 15 ppm | Content ratio of compound represented by Formula (III), Initial ([4]; start of test): 3 ppm
Compound: C[C@@H](Cn1c(=O)[nH]/c(=N\c2ccc(Oc3ccccn3)cc2)n(Cc2ccc(Cl)cc2)c1=O)C(=O)O [Reference Example 1]

Total amount of the content ratio of compound represented by Formula (III) contained in the filtrate after filtration and the obtained crystal [3]: 316.7 ppm | Content ratio of compound represented by Formula (III) in the solution before crystallization [3]: 178.9 ppm | Content ratio of compound represented by Formula (III) in the obtained crystal [1]: 1.3 ppm and 1.30 ppm
Compound: C[C@@H](Cn1c(=O)[nH]/c(=N\c2ccc(Oc3ccccn3)cc2)n(Cc2ccc(Cl)cc2)c1=O)C(=O)O [Reference Example 2]

Total amount of the content ratio of compound represented by Formula (III) contained in the filtrate after filtration and the obtained crystal [3]: 252.5 ppm | Content ratio of compound represented by Formula (III) in the solution before crystallization [3]: 82.0 ppm | Increased amount of content ratio of compound represented by Formula (III) during crystallization operation [3]: 170.5 ppm | 90% particle size distribution [2]: 169.84 μm
Compound: C[C@@H](Cn1c(=O)[nH]/c(=N\c2ccc(Oc3ccccn3)cc2)n(Cc2ccc(Cl)cc2)c1=O)C(=O)O [Reference Example 3]
